Assay [1] has as its target T1, human orexin 1 receptor (hOx1R) (Homo sapiens, UniProt O43613).
T1 construct: expressed in transfected cells
T1 sequence (O43613 1-425): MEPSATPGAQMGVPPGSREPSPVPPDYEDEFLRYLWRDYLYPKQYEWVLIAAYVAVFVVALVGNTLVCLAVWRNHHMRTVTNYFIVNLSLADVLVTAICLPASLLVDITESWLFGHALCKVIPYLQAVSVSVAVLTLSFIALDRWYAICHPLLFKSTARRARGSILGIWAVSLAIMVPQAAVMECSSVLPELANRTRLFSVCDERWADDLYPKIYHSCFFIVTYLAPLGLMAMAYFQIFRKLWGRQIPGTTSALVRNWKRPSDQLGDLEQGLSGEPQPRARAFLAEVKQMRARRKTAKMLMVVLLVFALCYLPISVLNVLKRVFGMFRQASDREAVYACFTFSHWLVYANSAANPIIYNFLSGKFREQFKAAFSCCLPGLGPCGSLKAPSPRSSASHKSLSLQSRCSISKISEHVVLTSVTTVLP
Kind of assay: Calcium accumulation in cells (FLIPR), antagonism of orexin A, hOx1R. In kind it is cell-based. The following applies: for inhibition at 10 µM: measured at a concentration of 10 μM of compound (cells marked ^a); for Kd: cells expressing human orexin 1 receptor, IC50 vs orexin A converted by Cheng and Prusoff correction. Here is the method:
(§1) Cells expressing human orexin 1 or human orexin 2 receptors, were seeded at 8,000 cells/well in 384 well black-walled clear bottom, poly-D-lysine coated plates. After 24 h, the medium was removed and cells were washed once with phosphate buffered saline and serum-deprived overnight in assay buffer (130 mM NaCl, 5.4 mM KCl, 1.8 mM CaCl2, 0.8 mM MgSO4, 0.9 mM NaH2PO4, 25 mM glucose, 20 mM HEPES, pH 7.4) containing bovine serum albumin (1% w/v).
(§2) On the day of the experiment, the cells seeded in black plates were treated with assay buffer containing the Ca^2+ sensitive fluorescent dye Fluo-4-AM (2 μM), and probenecid (0.1 mM). After 1 h plates were washed twice with, and resuspended in, assay buffer containing probenecid (0.1 mM) using a multi plate washer. The plates were placed into a FLIPR II (Fluorometric Imaging Plate Reader, Molecular Devices, Sunnyvale, Calif., USA) and baseline fluorescence (fluorescence light units, FLU) was measured (5 measurements, 2 S each; laser excitation 488 nm at 0.6-1 W, CCD camera exposure 0.4 s) before addition of buffer alone (basal) or containing test compounds (either compound of formula I alone, agonist alone or agonist in the presence of various concentrations of compounds of formula I). Fluorescence measurements were then continued every 1 S for 120 S followed by every 4 S for 240 S.
(§3) The measurements were typically made in two sequences:
(§4) Compounds of formula I were tested usually in a concentration range from 10^−9 M to 10^−5 M.
(§5) In the second round, performed one hour later (to allow for equilibration), Orexin A was tested either in the absence (calibration curves, Orexin A agonist controls) or in the presence of compounds of formula I to determine antagonism.

The target in assay [2] is T2, human orexin 2 receptor (hOx2R) (Homo sapiens, UniProt O43614).
T2 construct: expressed in transfected cells
T2 sequence (O43614 1-444): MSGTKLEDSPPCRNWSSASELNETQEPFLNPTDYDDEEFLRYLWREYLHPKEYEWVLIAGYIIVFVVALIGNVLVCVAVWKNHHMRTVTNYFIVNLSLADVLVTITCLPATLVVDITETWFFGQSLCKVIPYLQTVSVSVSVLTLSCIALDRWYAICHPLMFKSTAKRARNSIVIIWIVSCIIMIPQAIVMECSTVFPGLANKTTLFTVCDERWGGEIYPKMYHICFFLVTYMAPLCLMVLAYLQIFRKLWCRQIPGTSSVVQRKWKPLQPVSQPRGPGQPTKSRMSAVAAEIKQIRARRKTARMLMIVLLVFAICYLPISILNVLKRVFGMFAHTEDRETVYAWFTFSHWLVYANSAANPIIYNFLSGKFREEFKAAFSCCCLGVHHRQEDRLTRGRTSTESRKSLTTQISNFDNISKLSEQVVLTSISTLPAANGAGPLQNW
The assay can be described thus: Calcium accumulation in cells (FLIPR), antagonism of orexin A, hOx2R. The note with it: for Kd: cells expressing human orexin 2 receptor, IC50 vs orexin A converted by Cheng and Prusoff correction; for inhibition at 10 µM: measured at a concentration of 10 μM of compound (cells marked ^a). The assay is classed as cell-based. As for the experimental part:
as §1, §2, §3, §4, §5

SMILES strings stand for the structures.

Usually inhibition stands for how much of the control response was suppressed. The Kd is the free concentration of one partner at which half of the binding sites on the other are occupied at equilibrium, for simple one-to-one binding. `CN(C(=O)c1ccccc1)[C@](C)(CCNC(=O)c1ccccn1)Cc1ccccc1` [Example 111, Pyridine-2-carboxylic acid [(S)-3-(benzoyl-methyl-amino)-3-methyl-4-phenyl-butyl]-amide]: the inhibition at 10 µM in assay [1] was 25%. Moreover, the equilibrium dissociation constant (Kd) in assay [2] was found to be 562 nM.
On to `CN(C(=O)c1ccc2ccn(C)c2c1)[C@H](CCNC(=O)c1ccccn1)Cc1ccccc1` [Example 85, 1-Methyl-1H-indole-6-carboxylic acid {(S)-1-benzyl-3-[(pyridine-2-carbonyl)-amino]-propyl}-methyl-amide], for which the Kd in assay [1] amounted to 237 nM; in assay [2], 394 nM.
Turning to `COc1ccc(C(=O)N(C)[C@H](CCNC(=O)c2cccn2C)Cc2ccccc2)cc1OC` [Example 120, 1-Methyl-1H-pyrrole-2-carboxylic acid {(8)-3-[(3,4-dimethoxy-benzoyl)-methyl-amino]-4-phenyl-butyl}-amide], the equilibrium dissociation constant (Kd) in assay [1] was 182 nM; in assay [2] it was 4 nM.
As for `CN(C(=O)c1ccccc1Br)[C@H](CCNC(=O)c1ccccn1)Cc1ccccc1` [Example 100, Pyridine-2-carboxylic acid {(8)-3-[(2-bromo-benzoyl)-methyl-amino]-4-phenyl-butyl}-amide], the Kd in assay [1] was found to be 1080 nM; in assay [2], 131 nM.
As for `CN(C(=O)c1ccccc1)[C@H](CCNC(=O)c1ccccn1)[C@@H](F)c1ccccc1` [Example 116, Pyridine-2-carboxylic acid [(3R,4S)-3-(benzoyl-methyl-amino)-4-fluoro-4-phenyl-butyl]-amide], the dissociation constant (Kd) in assay [1] amounted to 1550 nM. The inhibition at 10 µM in assay [2] is 29%.
In the case of `CN(C(=O)c1ccccc1)[C@H](CCNC(=O)c1cccnc1)Cc1ccccc1` [Example 86, N—[(S)-3-(Benzoyl-methyl-amino)-4-phenyl-butyl]-nicotinamide], in assay [1], the inhibition at 10 µM worked out at 4%. Moreover, the dissociation constant Kd in assay [2] came to 1500 nM.
Turning to `CN(C(=O)c1ccc2c(c1)OC(C)(C)O2)[C@H](CCNC(=O)c1ccccn1)Cc1ccccc1` [Example 101, Pyridine-2-carboxylic acid {(S)-3-[(2,2-dimethyl-benzo[1,3]dioxole-5-carbonyl)-methyl-amino]-4-phenyl-butyl}-amide], the inhibition at 10 µM in assay [1] stood at 13%. In addition, the Kd in assay [2] is 1680 nM.
For `CN(C(=O)c1ccccc1)[C@H](CCNC(=O)c1cccn1C)Cc1ccccc1` [Example 91, 1-Methyl-1H-pyrrole-2-carboxylic acid [(S)-3-(benzoyl-methyl-amino)-4-phenyl-butyl]-amide], the inhibition at 10 µM in assay [1] turned out to be 16%. Besides, in assay [2], the equilibrium dissociation constant (Kd) is 375 nM.
In the case of `CN(C(=O)c1ccccc1)[C@H](CCNC(=O)c1cc2ccccc2cn1)Cc1ccccc1` [Example 89, Isoquinoline-3-carboxylic acid [(S)-3-(benzoyl-methyl-amino)-4-phenyl-butyl]-amide], the Kd was 5450 nM in assay [1] and 2550 nM in assay [2].
Consider `CN(C(=O)c1ccccc1)[C@H](CCNC(=O)c1ccccn1)C(C)(C)c1ccccc1` [Example 114, Pyridine-2-carboxylic acid [(R)-3-(benzoyl-methyl-amino)-4-methyl-4-phenyl-pentyl]-amide], for which the values for the inhibition at 10 µM in assay [1] and in assay [2] were 34% and 18%, respectively.
For the compound `CC(=O)NCC[C@H](Cc1ccccc1)N(C)C(=O)c1ccc2c(c1)OCO2` [Example 109, Benzo[1,3]-dioxole-5-carboxylic acid ((S)-3-acetylamino-1-benzyl-propyl)-methyl-amide], the inhibition at 10 µM in assay [1] turned out to be 39%. For the same compound, the dissociation constant (Kd) in assay [2] was determined as 1720 nM.
For `CN(C(=O)c1ccccc1)[C@H](CCNC(=O)c1ccc2cccnc2c1)Cc1ccccc1` [Example 88, Quinoline-7-carboxylic acid [(S)-3-(benzoyl-methyl-amino)-4-phenyl-butyl]-amide], in assay [1], the inhibition at 10 µM is 19%. In assay [2], the Kd turned out to be 3090 nM.
As for `CN(C(=O)c1ccc2c(c1)OCO2)[C@H](CCNC(=O)c1nc2ccccc2o1)Cc1ccccc1` [Example 108, Benzooxazole-2-carboxylic acid {(S)-3-[(benzo[1,3]dioxole-5-carbonyl)-methyl-amino]-4-phenyl-butyl}-amide], the equilibrium dissociation constant (Kd) in assay [1] stood at 3990 nM; in assay [2] it was 542 nM.
Consider `CN(C(=O)c1ccccc1)[C@H](CCNC(=O)c1ccccc1)Cc1ccccc1` [Example 15, N—[(S)-3-(Benzoyl-methyl-amino)-4-phenyl-butyl]-benzamide], for which the inhibition at 10 µM in assay [1] is 17%. Further, the dissociation constant (Kd) in assay [2] is 272 nM.
On to `CN(C(=O)c1ccccc1)[C@H](CCNC(=O)c1ccc2c(c1)CCO2)Cc1ccccc1` [Example 94, 2,3-Dihydro-benzofuran-5-carboxylic acid [(S)-3-(benzoyl-methyl-amino)-4-phenyl-butyl]-amide], for which the inhibition at 10 µM in assay [1] was determined as 12%. Also, the Kd in assay [2] was 565 nM.
As to `CN(C(=O)c1ccccc1)[C@@H](Cc1ccccc1)[C@H](O)CNC(=O)c1ccccn1` [Example 69, Pyridine-2-carboxylic acid [(2R,3S)-3-(benzoyl-methyl-amino)-2-hydroxy-4-phenyl-butyl]-amide], the Kd in assay [1] was 3520 nM; in assay [2], 1660 nM.
With `CN(C(=O)c1ccccc1)[C@H](CCNC(=O)c1ccccn1)[C@@H](O)c1ccccc1` [Example 115, Pyridine-2-carboxylic acid [(3R,4S)-3-(benzoyl-methyl-amino)-4-hydroxy-4-phenyl-butyl]-amide], the inhibition at 10 µM in assay [1] turned out to be 13%; in assay [2] it was 33%.
Regarding `COc1ccc(C(=O)N(C)[C@H](CCNC(=O)c2nc3ccccc3n2C)Cc2ccccc2)cc1` [Example 90, 1-Methyl-1H-benzoimidazole-2-carboxylic acid {(S)-3-[(4-methoxy-benzoyl)-methyl-amino]-4-phenyl-butyl}-amide], the Kd in assay [1] stood at 1250 nM; in assay [2], 2540 nM.
On to `CN(C(=O)c1ccccc1)[C@H](CCNC(=O)c1nccn1C)Cc1ccccc1` [Example 92, 1-Methyl-1H-imidazole-2-carboxylic acid [(S)-3-(benzoyl-methyl-amino)-4-phenyl-butyl]-amide], for which the inhibition at 10 µM in assay [1] stood at 2%. The Kd in assay [2] came to 921 nM.
Consider `Cc1cccc(C)c1C(=O)N(C)[C@H](CCNC(=O)c1ccccn1)Cc1ccccc1` [Example 98, Pyridine-2-carboxylic acid {(8)-3-[(2,6-dimethyl-benzoyl)-methyl-amino]-4-phenyl-butyl}-amide], for which the results for the inhibition at 10 µM in assay [1] and in assay [2] were 28% and 24%, respectively.
Take `CN(C(=O)c1ccccc1)[C@H](CCNC(=O)c1ccc2ccccc2n1)Cc1ccccc1` [Example 87, Quinoline-2-carboxylic acid [(S)-3-(benzoyl-methyl-amino)-4-phenyl-butyl]-amide]: the equilibrium dissociation constant (Kd) was found to be 4420 nM in assay [1] and 1290 nM in assay [2].
As to `CN(C(=O)c1ccc2c(c1)OCO2)[C@@H](Cc1ccccc1)[C@H](O)CNC(=O)c1ccc2c(c1)OCO2` [Example 72, Benzo[1,3]dioxole-5-carboxylic acid {(2R,3S)-3-[(benzo[1,3]dioxole-5-carbonyl)-methyl-amino]-2-hydroxy-4-phenyl-butyl}-amide], the inhibition at 10 µM in assay [1] amounted to 27%. Also, the equilibrium dissociation constant (Kd) in assay [2] came to 761 nM.
